# Molecular target: T1, MASP-2 (Homo sapiens, UniProt O00187)
# T1 construct: applying test samples, e.g., diluted plasma or serum samples; from tissue; host or cells: plasma or serum
# Experiment: TRIFMA for MASP-2 activity of the MBL/MASP complex (C4 activation on mannan-coated wells)
# Assay type: biochemical
# Method: MASP-2 may be estimated by its capacity to activate the complement system. When C4 is cleaved by MASP-2 an active thiol ester is exposed and C4 becomes covalently attached to nearby nucleophilic groups. A substantial part of the C4b will thus become attached to the coated plastic well and may be detected by anti-C4 antibody. A quantitative TRIFMA for MASP-2 activity was constructed by 1) coating microtitre wells with 1 μg mannan in 100 μl buffer; 2) blocking with Tween-20; 3) applying test samples, e.g., diluted plasma or serum samples; 4) applying purified complement factor C4 at 5 μg/ml; 5) incubate for one hour at 37° C.; 6) applying Eu-labelled anti-C4 antibody; 7) applying enhancement solution; and 8) reading the Eu by time resolved fluorometry. (Estimation by ELISA may be carried out similarly, e.g. by applying biotin-labelled anti-C4 in step 6; 7) apply alkaline phosphatase-labelled avidin; 8) apply substrate; and 9) read the colour intensity). Between each step the plate was incubated at room temperature and washed, except between step 7 and 8. A calibration curve can be constructed using dilutions of one selected normal plasma, arbitrarily said to contain 1 unit of MBL/MASP-2 activity per ml. The assay is carried out at conditions which preclude activation of C4 by the classical or alternative complement activation pathways.
# T1 sequence (O00187 445-686 limits assumed): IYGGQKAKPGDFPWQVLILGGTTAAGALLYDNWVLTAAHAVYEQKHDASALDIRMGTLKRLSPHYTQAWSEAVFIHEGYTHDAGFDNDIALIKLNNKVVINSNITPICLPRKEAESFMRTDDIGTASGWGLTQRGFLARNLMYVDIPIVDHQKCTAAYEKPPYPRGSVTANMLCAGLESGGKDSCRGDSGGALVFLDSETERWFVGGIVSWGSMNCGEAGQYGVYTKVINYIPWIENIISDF
# T1 sequence (O00187 16-444 partner limits assumed): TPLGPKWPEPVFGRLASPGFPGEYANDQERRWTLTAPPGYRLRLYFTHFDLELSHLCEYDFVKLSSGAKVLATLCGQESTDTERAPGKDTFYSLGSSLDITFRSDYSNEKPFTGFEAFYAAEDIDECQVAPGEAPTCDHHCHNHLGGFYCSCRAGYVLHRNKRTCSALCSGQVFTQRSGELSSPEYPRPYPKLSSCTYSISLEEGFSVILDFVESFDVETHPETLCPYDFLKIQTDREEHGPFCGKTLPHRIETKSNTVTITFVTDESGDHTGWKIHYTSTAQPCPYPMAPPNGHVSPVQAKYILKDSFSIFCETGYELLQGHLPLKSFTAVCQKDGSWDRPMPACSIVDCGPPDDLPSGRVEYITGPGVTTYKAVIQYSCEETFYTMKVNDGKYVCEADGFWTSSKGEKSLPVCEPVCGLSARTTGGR
# T1 sequence (P11226 21-248 partner): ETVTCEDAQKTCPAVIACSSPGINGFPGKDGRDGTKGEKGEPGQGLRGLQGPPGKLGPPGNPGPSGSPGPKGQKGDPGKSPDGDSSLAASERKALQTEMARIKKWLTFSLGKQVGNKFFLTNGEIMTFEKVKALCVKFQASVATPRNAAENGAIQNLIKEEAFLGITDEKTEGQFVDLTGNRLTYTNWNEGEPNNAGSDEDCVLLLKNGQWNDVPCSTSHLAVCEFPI
smiles,measurement,setting,value
Cl.NCCc1ccc(S(=O)(=O)F)cc1 [Pefabloc],effectiveness as enzyme inhibitor in the TRIFMA for MASP-2 activity,,inhibitors of MASP-2 activity
O=S(=O)(F)Cc1ccccc1 [PMSF],effectiveness as enzyme inhibitor in the TRIFMA for MASP-2 activity,,proved effective
N=C(N)c1ccccc1 [benzamidine],effectiveness as enzyme inhibitor in the TRIFMA for MASP-2 activity,,proved effective
same,activation of C4,"purified C4 at 5 μg/ml, one hour at 37° C.",completely inhibited
